PMC3948622, “Docking, Synthesis and Antiproliferative Activity of N-Acylhydrazone Derivatives Designed as Combretastatin A4 Analogues” (PLoS ONE, 2014)
Converted amounts (≈) assume the structure as drawn.

Assays:
[1] = Aqueous solubility assay by ultraviolet spectroscopy; type: physicochemical; details: water (saturated aqueous solution), thermodynamic from solid, 2 hours at 37°C, read-out: Aq. Solubility
Procedure: Ultraviolet spectroscopy was performed using Femto spectrophotometer. The wavelength used in solubility assay was determined by the -λ max characteristic of each compound. Spectra were analyzed in Femtoscan software. Mass spectrometry was obtained by positive ionization at Bruker AmaZon SL and data analyzed in Compass 1.3.SR2 software.
The solubility assay was performed considering the absorptivity of compounds in ultraviolet spectroscopy as described by Schneider and coworkers. The assay wavelength was determined by the λ max characteristic of each compound.
Saturated aqueous solutions were prepared (0.01 mg/mL) and were kept under stirring for 2 hours at 37°C. The supernatant was filtered in 0,45 µm filters and transferred to a quartz cuvette (10 mm) to spectra acquisition.
Solubility was determined by linear regression using as graph plots, solutions prepared by dilutions of the original solution in methanol. The data were obtained in triplicates and the mean values were used to the graph plots. The correlation coefficient (R^2) values were between 0.9972 and 0.9999.

HL-60 (human leukemia) = assay: In vitro antiproliferative MTT assay, HL-60; type: cell-based
Procedure: (§1) The antiproliferative activity of compounds 5a–r was determined based on an MTT assay and using CA-4 as standard against the tumor cell lines: HL-60 (human leukemia), SF-295 (human glioblastoma), MDA-MB435 (melanoma), PC3M (prostate cancer), OVCAR-8 (ovaries adenocarcinoma), NCI-H258M (pulmonary bronchio-alveolar carcinoma) and HCT-8 (adenocarcinoma ileocecal) (Table 2). To determine the selectivity index of compounds 5a–r, their antiproliferative profile was also evaluated toward human lymphocytes (Table 2).
(§2) Compounds (0.009–5 µg/mL) were tested for cytotoxic activity against selected cancer cell lines: SF-295 (glioblastoma), HCT-8 (colon), MDAMB-435 (melanoma), HL60 (leukemia), PC3M (prostate cancer), OVCAR-8 (ovaries adenocarcinoma) and NCI-H258M (pulmonary bronchio-alveolar carcinoma). All cell lines were kindly obtained from the National Cancer Institute (Bethesda, MD, USA).Tumor cell proliferation was quantified through the ability of living cells to reduce the yellow dye 3-(4,5-dimethyl-2-thiazolyl)-2,5-diphenyl-2H-tetrazolium bromide (MTT, Sigma Aldrich)) to a purple formazan product and absorbance was measured at 595 nm (DTX-880, Beckman Coulter).

[2] = test system: OVCAR-8 (ovaries adenocarcinoma); assay: In vitro antiproliferative MTT assay, OVCAR-8; type: cell-based
Procedure: as §1, §2

[3] = test system: NCI-H358M (pulmonary bronchio-alveolar carcinoma); assay: In vitro antiproliferative MTT assay, NCI-H358M; type: cell-based
tubulin = assay: Tubulin polymerization assay (CEREP); type: biochemical; details: single concentration C = 30 µM; vinblastine as positive control
Procedure: The tubulin polymerization assay was performed by CEREP® employing a single concentration of 5b (C = 30 µM), using vinblastine as positive control. In this assay, LASSBio-1586 (5b) inhibited 91% of the tubulin polymerization, validating the rational design employed in the molecular design of the derivatives 5a–r (data not shown; available in the supplementary information, Figure S1).
The tubulin polymerization assay was performed by CEREP®, as described by Bonne and co-workers.

tumor cell lines = assay: In vitro antiproliferative MTT assay, tumor cell lines (summary over the panel); type: cell-based; details: summary in text over the cell lines of Table 2; read-out: IC50 (antiproliferative potency over the tumor cell lines)
Procedure: as §1, §2

MDA-MB435 (melanoma) = assay: In vitro antiproliferative MTT assay, MDA-MB435; type: cell-based; details: Homo sapiens, MDA-MB-435; Table 2; MTT
[4] = IC50 for human lymphocytes/IC50 for cancer cell line
[5] = SI of 5b relative to SI of CA-4

COc1cc(C(=O)N/N=C/c2ccccc2)cc(OC)c1OC [Compound 5b, (E)-N′benzylidene-3,4,5-trimetoxybenzohydrazide]
solubility at 2 h [1]: 39.5 µg/mL (≈ 126 µM)
IC50 (HL-60 (human leukemia); Homo sapiens, HL-60, Table 2, MTT): 290 nM
SI Lymphocyte/ HL-60 (HL-60 (human leukemia); [4]): 4.11±0.39
IC50 ([2]; Homo sapiens, OVCAR-8, Table 2, MTT): 290 nM
SI Lymphocyte/ OVCAR-8 [2, 4]: 4.39±0.21
comparative selectivity index (CA-4 vs 5b) OVCAR-8 [2, 5]: 0.5
SI Lymphocyte/ NCI-H358M [3, 4]: 4.05±0.25
IC50 ([3]; NCI-H358M, Table 2, MTT): 350 nM
comparative selectivity index (CA-4 vs 5b) NCI-H258M [3, 5]: 9.5
inhibition of tubulin polymerization (tubulin): 91%
IC50 (tumor cell lines): 64 to 800 nM
IC50 (MDA-MB435 (melanoma)): 64 nM
